The text below walks through data of patent US10266493B2, “Thioacetate compounds, compositions and methods of use” (Ardea Biosciences, Inc., priority 2010, dated 2019).

Sequence of URAT1 (Q96S37 whole entry, looked up): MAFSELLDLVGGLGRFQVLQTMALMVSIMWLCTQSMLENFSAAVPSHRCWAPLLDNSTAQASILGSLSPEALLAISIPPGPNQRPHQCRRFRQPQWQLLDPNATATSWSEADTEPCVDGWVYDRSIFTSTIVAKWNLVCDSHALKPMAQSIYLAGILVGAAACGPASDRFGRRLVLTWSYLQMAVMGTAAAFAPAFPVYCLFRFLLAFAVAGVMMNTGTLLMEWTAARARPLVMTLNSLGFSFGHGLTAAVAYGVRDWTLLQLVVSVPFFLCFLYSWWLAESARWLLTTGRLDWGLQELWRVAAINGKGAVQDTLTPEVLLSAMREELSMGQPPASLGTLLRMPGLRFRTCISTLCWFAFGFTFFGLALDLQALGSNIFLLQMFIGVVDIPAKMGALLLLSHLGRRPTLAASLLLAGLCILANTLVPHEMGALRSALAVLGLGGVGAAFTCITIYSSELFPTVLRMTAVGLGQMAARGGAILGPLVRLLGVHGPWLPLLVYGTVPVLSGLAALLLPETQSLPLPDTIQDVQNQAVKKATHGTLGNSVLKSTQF

The assay addresses URAT1 (Homo sapiens, UniProt Q96S37). Kind of assay: URAT1-model assay: 14C-uric acid transport in HEK293/URAT1-model cells. The class given is cell-based. The following applies: HEK293 cells transfected with model URAT1 construct; 14C-uric acid uptake, 10 minutes at room temperature; read-out: URAT1 EC50 Activity Ranking. The method, then:
Transfections of HEK293 cells with a model URAT1 construct was performed using L2000 transfection reagent (Invitrogen) as described by the manufacturer. After 24 h the transfected cells were split into 10 cm tissue culture plates and grown for 1 day after which the medium was replaced with fresh growth medium containing G418 (Gibco) at 0.5 mg/ml final concentration. Drug-resistant colonies were selected after approximately 8 days and then tested for ^14C-uric acid transport activity. The HEK293/URAT1-model cells are plated on Poly-D-Lysine Coated 96-well Plates at a density of 125,000 cells per well.
Cells were grown overnight (20-26 hours) at 37° C. in an incubator. […] Plates were incubated at room temperature for 10 minutes then washed 3 times with 50 μl Wash Buffer and 3 times with 250 μl Wash Buffer. Microscint 20 Scintillation Fluid was added and plates were incubated overnight at room temperature to equilibrate. Plates are then read on the TopCount Plate Reader and an EC50 value generated.
On to `N#Cc1ccc(-c2cnccc2SCC(=O)O)c2ccccc12` [Example 2B], for which the EC50 (in general, the concentration at which the effect is half-maximal) fell in the range of 0.5 to 10 µM.

Turning to `CC(C)(Sc1ccncc1-c1ccc2c(c1)OCO2)C(=O)O` [Example 2E], the EC50 lay in the range of 0.5 to 10 µM.

Consider `N#Cc1ccc(-c2cnccc2SC(F)(F)C(=O)O)c2ccccc12` [Example 2FF], for which the EC50 is 0.5 to 10 µM.

Consider `CC(C)(Sc1ccncc1-c1cc2ccccc2[nH]1)C(=O)O` [Example 2G], for which the concentration for a half-maximal effect (EC50) was in the range of 0.5 to 10 µM.

Take `CC(C)(Sc1ccncc1-c1ccc(C(=O)O)cc1F)C(=O)O` [Example 2HHH]: the EC50 is 0.5 to 10 µM.

As to `COc1ncc(-c2cnccc2SC(C)(C)C(=O)O)cn1` [Example 2HH], the concentration giving a half-maximal response (EC50) fell in the range of 0.5 to 10 µM.

For `CC(C)(Sc1ccncc1-c1ccc2c(c1)OCCO2)C(=O)O` [Example 2I], the EC50 lay within 0.5 to 10 µM.

`Cc1ccc(-c2cnccc2SC(C)(C)C(=O)O)cn1` [Example 2LL]: the EC50 fell in the range of 0.5 to 10 µM.

Regarding `CC(C)(Sc1ccncc1-c1cccc2cnccc12)C(=O)O` [Example 2L], the EC50 is 0.5 to 10 µM.

On to `CC(C)(Sc1ccncc1-c1cccnc1)C(=O)O` [Example 2M], for which the concentration for a half-maximal effect (EC50) lay within 0.5 to 10 µM.

On to `CN(C)c1ccc(-c2cnccc2SC(C)(C)C(=O)O)cc1` [Example 2OO], for which the EC50 is 0.5 to 10 µM.

With `Cn1cc(-c2cnccc2SC(C)(C)C(=O)O)cn1` [Example 2QQ], the EC50 lay in the range of 0.5 to 10 µM.

Consider `CC(C)(Sc1ccncc1-c1ccc(CC#N)cc1)C(=O)O` [Example 2RR], for which the EC50 was in the range of 0.5 to 10 µM.

For `CC(C)(Sc1ccncc1-c1ccccc1)C(=O)O` [Example 2R], the EC50 is 0.5 to 10 µM.

`CC(C)(Sc1ccncc1-c1ccc(CC(N)=O)cc1)C(=O)O` [Example 2SS]: the EC50 is 0.5 to 10 µM.

For `COc1ccc2cc(-c3cnccc3SC(C)(C)C(=O)O)ccc2c1` [Example 2V], the half-maximal effective concentration (EC50) fell in the range of 0.5 to 10 µM.

As for `CC(C)(Sc1ccncc1-c1ccc(N)cc1)C(=O)O` [Example 2YY], the EC50 lay within 0.5 to 10 µM.

Take `CCOc1ccc2cc(-c3cnccc3SC(C)(C)C(=O)O)ccc2c1` [Example 2Y]: the half-maximal effective concentration (EC50) lay in the range of 0.5 to 10 µM.

`CC(C)(Sc1ccncc1-c1ccc2ccccc2c1)C(=O)O` [Example 2Z]: the EC50 was 0.5 to 10 µM.

`N#Cc1ccc(-c2cccnc2SCC(=O)O)c2ccccc12` [Example 4B]: the EC50 is 0.5 to 10 µM.

In the case of `CC(C)(Sc1ncncc1-c1ccc(C#N)c2ccccc12)C(=O)O` [Example 6B, 2-(5-(4-cyanonaphthalen-1-yl)pyrimidin-4-ylthio)-2-methylpropanoic Acid], the EC50 lay in the range of 0.5 to 10 µM.
